Assay results: ChEMBL document CHEMBL5380816, “Inclusion of Nitrofurantoin into the Realm of Cancer Chemotherapy via Biology-Oriented Synthesis and Drug Repurposing” (J Med Chem, 2023)
Activity calls are given as the source filed them. The rule behind the calls is not given here.

What was measured:
Caco-2 [1] = assay: Induction of apoptosis in human Caco-2 cells assessed as viable cells incubated at 0.097 uM for 72 hrs by annexin V-FITC based propidium iodide dual staining assay (reference value: 99.89%); assay type: functional; settings: read-out: Activity
Caco-2 [2] = assay: Induction of apoptosis in human Caco-2 cells assessed as increase in Bax expression level relative to control; assay type: functional
MCF7 [3] = assay: Induction of apoptosis in human MCF7 cells assessed as increase in Bax expression level relative to control; assay type: functional
HepG2 [4] = assay: Anticancer activity against human HepG2 cells assessed as smaller cells incubated at 0.097uM for 72 hrs by phase contrast inverted microscopic analysis; assay type: functional, cell-based
HeLa [5] = assay: Induction of oxidative stress in human HeLa cells assessed as cell death by measuring redox alteration fluorescence incubated at 0.097 uM for 72 hrs in presence of dihydro dichlorofluorescein diacetate by DCFH-DA based flow cytometric analysis relative to control; assay type: functional
Caco-2 [6] = assay: Induction of apoptosis in human Caco-2 cells assessed as late apoptotic cells by measuring orange to red patch incubated at 0.097 uM for 72 hrs by acridine orange-ethidium bromide dual staining based fluorescence microscopic analysis; assay type: functional, cell-based
HeLa [7] = assay: Anticancer activity against human HeLa cells assessed as smaller cells incubated at 0.097uM for 72 hrs by phase contrast inverted microscopic analysis; assay type: functional, cell-based
HeLa [8] = assay: Anticancer activity against human HeLa cells assessed as cell shrinkage incubated at 0.097uM for 72 hrs by phase contrast inverted microscopic analysis; assay type: functional, cell-based
MCF7 [9] = assay: Induction of apoptosis in human MCF7 cells assessed as early apoptotic cells incubated at 0.11 uM for 72 hrs by annexin V-FITC based propidium iodide dual staining assay (reference value: 0.06%); assay type: functional
HepG2 [10] = assay: Induction of apoptosis in human HepG2 cells assessed as total apoptotic cells incubated at 0.11 uM for 72 hrs by annexin V-FITC based propidium iodide dual staining assay (reference value: 0.99 +/- 0.02%); assay type: functional
HepG2 [11] = assay: Anticancer activity against human HepG2 cells assessed as smaller cells incubated at 0.11 uM for 72 hrs by phase contrast inverted microscopic analysis; assay type: functional, cell-based
Caco-2 [12] = assay: Induction of apoptosis in human Caco-2 cells assessed as early apoptotic cells by measuring bright green patch incubated at 0.11 uM for 72 hrs by acridine orange-ethidium bromide dual staining based fluorescence microscopic analysis; assay type: functional, cell-based
Caco-2 [13] = assay: Induction of apoptosis in human Caco-2 cells assessed as viable cells incubated at 0.11 uM for 72 hrs by annexin V-FITC based propidium iodide dual staining assay (reference value: 99.89%); assay type: functional; settings: read-out: Activity
dsDNA = assay: Induction of damage in dsDNA (unknown origin) assessed as instantaneous DNA disruption by measuring decrease in fluorescence intensity at 100 uM incubated upto 160 mins by EvaGreen based fluorescence plate reader analysis; assay type: nucleic-acid assay
Homo sapiens = species: Homo sapiens; assay: Selectivity index, ratio IC50 for human MDA-MB-231 cells to IC50 for human MCF7 cells
Caco-2 [14] = assay: Induction of apoptosis in human Caco-2 cells assessed as caspase3/7 activation at 0.11 uM using caspase-glo 3/7 as substrate relative to control; assay type: functional
MCF7 [15] = assay: Induction of oxidative stress in human MCF7 cells assessed as cell death by measuring redox alteration fluorescence incubated at 0.097 uM for 72 hrs in presence of dihydro dichlorofluorescein diacetate by DCFH-DA based flow cytometric analysis relative to control; assay type: functional
HeLa [16] = assay: Anticancer activity against human HeLa cells assessed as absence of normal spindle shape incubated at 0.11 uM for 72 hrs by phase contrast inverted microscopic analysis; assay type: functional, cell-based
HeLa [17] = assay: Induction of apoptosis in human HeLa cells assessed as viable cells incubated at 0.017 uM for 72 hrs by annexin V-FITC based propidium iodide dual staining assay (reference value: 97.23%); assay type: functional; settings: read-out: Activity
MCF7 [18] = assay: Induction of apoptosis in human MCF7 cells assessed as early apoptotic cells incubated at 0.017 uM for 72 hrs by annexin V-FITC based propidium iodide dual staining assay (reference value: 0.06%); assay type: functional
MCF7 [19] = assay: Anticancer activity against human MCF7 cells assessed as losing contact with neighbouring cells incubated at 0.098uM for 72 hrs by phase contrast inverted microscopic analysis; assay type: functional, cell-based
MCF7 [20] = assay: Induction of apoptosis in human MCF7 cells assessed as late apoptotic cells incubated at 0.098 uM for 72 hrs by annexin V-FITC based propidium iodide dual staining assay (reference value: 0.01%); assay type: functional
Caco-2 [21] = assay: Induction of apoptosis in human Caco-2 cells assessed as total apoptotic cells incubated at 0.098 uM for 72 hrs by annexin V-FITC based propidium iodide dual staining assay (reference value: 0.04 +/- 0.005%); assay type: functional
Caco-2 [22] = assay: Induction of apoptosis in human Caco-2 cells assessed as necrotic cells incubated at 0.098 uM for 72 hrs by annexin V-FITC based propidium iodide dual staining assay (reference value: 0.02 %); assay type: functional
HeLa [23] = assay: Induction of apoptosis in human HeLa cells assessed as late apoptotic cells incubated at 0.098 uM for 72 hrs by annexin V-FITC based propidium iodide dual staining assay (reference value: 0%); assay type: functional
HepG2 [24] = assay: Anticancer activity against human HepG2 cells assessed as cell shrinkage incubated at 0.098uM for 72 hrs by phase contrast inverted microscopic analysis; assay type: functional, cell-based
HeLa [25] = assay: Anticancer activity against human HeLa cells assessed as round cells incubated at 0.098uM for 72 hrs by phase contrast inverted microscopic analysis; assay type: functional, cell-based
HepG2 [26] = assay: Induction of oxidative stress in human HepG2 cells assessed as cell death by measuring redox alteration fluorescence incubated at 0.097 uM for 72 hrs in presence of dihydro dichlorofluorescein diacetate by DCFH-DA based flow cytometric analysis relative to control; assay type: functional
MCF7 [27] = assay: Induction of apoptosis in human MCF7 cells assessed as total apoptotic cells incubated at 0.098 uM for 72 hrs by annexin V-FITC based propidium iodide dual staining assay (reference value: 0.04 %); assay type: functional

SMILES: NS(=O)(=O)c1ccc(-n2cc(CN3C(=O)CN(/N=C/c4ccc([N+](=O)[O-])o4)C3=O)nn2)cc1
- viability at 0.097 µM (Caco-2 [1]): 32.8%
- Activity (Caco-2 [2]): 300%
- Activity (MCF7 [3]): 300%
- Activity (HepG2 [4]): Active
- Activity (HeLa [5]): 53.5%
- Activity (Caco-2 [6]): Active
- Activity (HeLa [7]): Active
- Activity (HeLa [8]): Active

SMILES: C#CCN1C(=O)CN(/N=C/c2ccc([N+](=O)[O-])o2)C1=O
- Activity (MCF7 [9]): 7.55%
- Activity (HepG2 [10]): 63.15%
- Activity (HepG2 [11]): Active
- Activity (Caco-2 [12]): Active
- viability at 0.11 µM (Caco-2 [13]): 49.4%
- Activity (dsDNA): Active
- Ratio IC50 (Homo sapiens): 2
- Activity (Caco-2 [14]): 55%
- Activity (MCF7 [15]): 35.5%
- Activity (HeLa [16]): Active

SMILES: O=c1[nH]cc(F)c(=O)[nH]1 [FLUOROURACIL]
- viability at 0.017 µM (HeLa [17]): 88.1%
- Activity (MCF7 [18]): 6.16%

SMILES: O=C(CN1C(=O)CN(/N=C/c2ccc([N+](=O)[O-])o2)C1=O)c1ccc(Cl)cc1
- Activity (MCF7 [19]): Active
- Activity (MCF7 [20]): 38.55%
- Activity (Caco-2 [21]): 30.95%
- Activity (Caco-2 [22]): 3.37%
- Activity (HeLa [23]): 62.92%
- Activity (HepG2 [24]): Active
- Activity (HeLa [25]): Active
- Activity (HepG2 [26]): 38.99%
- Activity (MCF7 [27]): 41.73%
